Assay results reported in US5658908A (priority 1992, dated 1997).
Entries after “also recorded” stand apart in the source; their conditions may differ.

Assays:
delta receptor [1] = target: delta receptor (Mus musculus, UniProt P32300); assay: Delta opioid receptor agonist activity; settings: in words
[2] = Analgesia (test not described); assay type: in vivo; settings: in words
mu receptor [3] = assay: Mu opioid receptor agonist activity; settings: in words
delta-opioid receptor = assay: Tail flick test, injection into brain (icv); assay type: in vivo; settings: mice
mouse vas deferens [4] = target: T1, mouse vas deferens (Mus musculus, UniProt P32300); assay: cell-based; assay type: cell-based
T1 construct: Vasa deferentia were removed from mice; from tissue; host or cells: mouse vas deferens
T1 sequence (P32300 whole entry): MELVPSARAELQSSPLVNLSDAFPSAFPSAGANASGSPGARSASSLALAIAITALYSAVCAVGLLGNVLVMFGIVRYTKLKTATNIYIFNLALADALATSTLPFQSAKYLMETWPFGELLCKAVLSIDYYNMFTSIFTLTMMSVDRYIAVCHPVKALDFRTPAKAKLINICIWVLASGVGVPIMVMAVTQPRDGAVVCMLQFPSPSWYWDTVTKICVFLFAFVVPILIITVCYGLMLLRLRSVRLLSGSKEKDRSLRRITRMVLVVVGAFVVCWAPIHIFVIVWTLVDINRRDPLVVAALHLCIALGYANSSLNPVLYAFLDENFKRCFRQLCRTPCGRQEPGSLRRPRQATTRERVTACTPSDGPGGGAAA

Delta Receptor [5] = target: T2, Delta Receptor (Rattus norvegicus, UniProt P33533); assay: Delta receptor binding, rat brain membranes; parameters: species or system rat (Sprague-Dawley); settings: 125I-[D-Ala2,D-Leu5]enkephalin 0.24 nM with mu-agonist morphiceptin analog, 24° C., 60 min, mean of (n) experiments, read-out: Delta Receptor IC50
T2 construct: Rat (Sprague-Dawley) brain membranes were prepared; from tissue; host or cells: rat (Sprague-Dawley) brain membranes
T2 sequence (P33533 whole entry): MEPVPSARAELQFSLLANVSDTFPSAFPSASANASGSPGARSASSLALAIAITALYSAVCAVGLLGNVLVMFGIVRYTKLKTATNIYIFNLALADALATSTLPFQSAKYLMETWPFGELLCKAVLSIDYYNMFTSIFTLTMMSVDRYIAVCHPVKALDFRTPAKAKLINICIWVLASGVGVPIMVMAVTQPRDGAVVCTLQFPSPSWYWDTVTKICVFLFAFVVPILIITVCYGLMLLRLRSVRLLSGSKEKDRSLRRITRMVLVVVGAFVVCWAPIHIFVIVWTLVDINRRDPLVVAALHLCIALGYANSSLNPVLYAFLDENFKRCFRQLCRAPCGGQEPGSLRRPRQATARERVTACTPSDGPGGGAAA

[6] = test system: mu and delta opioid receptors; assay: Rodent tests of analgesia, muscle rigidity, respiratory depression and proconvulsant activity
guinea pig ileum = assay: Inhibition of electrically stimulated contraction of guinea pig ileum; assay type: cell-based; settings: Cavia porcellus, mean of (n) experiments, read-out: Guinea Pig lleum ED50
[7] = Side effects on peripheral administration to rats and mice
Mu Receptor [8] = target: T3, Mu Receptor (Rattus norvegicus, UniProt P33535); assay: Mu receptor binding, rat brain membranes; parameters: species or system rat (Sprague-Dawley); settings: 125I-[D-Ala2,N-MePhe4,Met(O)ol5]enkephalin 0.1 nM, 24° C., 60 min, mean of (n) experiments, read-out: Mu Receptor IC50
T3 construct: Rat (Sprague-Dawley) brain membranes were prepared; from tissue; host or cells: rat (Sprague-Dawley) brain membranes
T3 sequence (P33535 whole entry): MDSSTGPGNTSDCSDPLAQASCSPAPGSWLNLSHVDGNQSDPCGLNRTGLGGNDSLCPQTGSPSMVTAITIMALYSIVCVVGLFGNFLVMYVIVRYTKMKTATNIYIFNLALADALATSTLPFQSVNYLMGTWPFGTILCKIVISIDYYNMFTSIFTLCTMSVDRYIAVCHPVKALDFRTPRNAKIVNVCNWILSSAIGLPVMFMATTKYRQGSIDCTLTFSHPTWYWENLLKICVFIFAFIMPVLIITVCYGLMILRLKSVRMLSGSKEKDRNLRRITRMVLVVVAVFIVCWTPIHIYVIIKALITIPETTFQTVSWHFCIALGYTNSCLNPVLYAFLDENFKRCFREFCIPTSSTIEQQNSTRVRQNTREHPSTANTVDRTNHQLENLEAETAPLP

mouse vas deferens [9] = target: T1, mouse vas deferens; assay: cell-based

Sequence of delta receptor (P32300 whole entry): as the sequence (P32300 whole entry) above

C=CCN1C[C@H](C)N([C@@H](c2ccccc2)c2cccc(O)c2)C[C@H]1C (relative stereo) [Compound I]
delta receptor agonist activity (delta receptor [1]): delta-receptor opiate properties | analgesic activity [2]: strong analgesics | mu receptor agonist activity (mu receptor [3]): significant agonist activity

CCN(CC)C(=O)c1ccc(C(c2cccc(O)c2)N2C[C@@H](C)N(C)[C@@H](C)C2)cc1 (relative stereo) [Compound E]
analgesic activity in the tail flick test (delta-opioid receptor): provide analgesic activity | reversal of analgesia by injection of naloxone or delta-specific antagonists (ICI 174,864 or naltrindole) (delta-opioid receptor): reversible | agonist activity in the mouse vas deferens (mouse vas deferens [4]; in words): inactive as an agonist | antagonist activity in the mouse vas deferens (mouse vas deferens [4]; in words): may be a weak antagonist

C=CCN1C[C@H](C)N([C@@H](c2cccc(O)c2)c2cccc(C(=O)N(CC)CC)c2)C[C@H]1C [Example 85, (+)-3-((αR)-α-((2S,5R)-4-Allyl-2,5-dimethyl-1-piperazinyl)-3-hydroxybenzyl)-N,N-diethylbenzamide]
delta receptor agonist activity (delta receptor [1]; listed as Compound C): mixed mu/delta opioid agonist; also recorded: agonism at both mu and delta opioid receptors | IC50 (Delta Receptor [5]): 1.9 nM | analgesic potency compared to morphine [6]: analgesic potency comparable to mu-analgesic morphine | muscle rigidity and respiratory depression compared to morphine [6]: much reduced extent of muscle rigidity and respiratory depression | proconvulsant activity [6]: free of proconvulsant activity | IC50 (mouse vas deferens [4]): 7.3 nM | IC50 (guinea pig ileum): 18 nM | mu receptor agonist activity (mu receptor [3]; listed as Compound C): mixed mu/delta opioid agonist; also recorded: agonism at both mu and delta opioid receptors

C=CCN1C[C@H](C)N([C@H](c2cccc(O)c2)c2cc(Br)c(C(=O)N(CC)CC)s2)C[C@H]1C (relative stereo) [Compound B, 5-((αR*)-α-((2S*,5R*)-4-allyl-2,5-dimethyl-1-piperazinyl)-3-hydroxybenzyl)-3-bromo-N,N-diethyl-2-thiophenecarboxamide]
delta receptor agonist activity (delta receptor [1]): predominantly delta receptor agonist; also recorded: delta-opioid agonist | opioid receptor ligand selectivity (opioid receptor): highly selective opioid receptor ligand species | side effects when administered peripherally [7]: does not produce evident side effects

CCN(CC)C(=O)c1ccc([C@H](c2cccc(O)c2)N2C[C@@H](C)N(C)C[C@H]2C)cc1 [Example 13, (+)-N,N-diethyl-4-(3-hydroxy-(αR)-α-((2R,5R) -2,4,5-trimethyl-1-piperazinyl)benzyl)benzamide]
IC50 (Mu Receptor [8]): 2400 nM | Kb (mouse vas deferens [9]): 100 nM | IC50 (guinea pig ileum): > 10000 nM

C=CCN1C[C@H](C)N([C@@H](c2ccsc2)c2cccc(O)c2)C[C@H]1C (relative stereo) [Compound K]
delta receptor agonist activity (delta receptor [1]): delta-receptor opiate properties | analgesic activity [2]: strong analgesics | mu receptor agonist activity (mu receptor [3]): significant agonist activity
